Experimental data from patent publication US20020068038A1, “Foaming tablet for cleaning the oral cavity and preparation method thereof” (priority 1998, published 2002).
Read-outs that look alike come from different tables or passages of the source.

Legend:
[1] = Streptococcus sanguis, MH medium, 96 hours anaerobic cultivation at 37° C., less than 10 colonies on LRBB agar
[2] = Streptococcuis mutans, MH medium, 96 hours anaerobic cultivation at 37° C., less than 10 colonies on LRBB agar
[3] = Lactobacillus casei, MH medium, 96 hours anaerobic cultivation at 37° C., less than 10 colonies on LRBB agar
[4] = Acetinobacillus, MH medium, 96 hours anaerobic cultivation at 37° C., less than 10 colonies on LRBB agar
[5] = Bacterioides gingivalis, MH medium, 96 hours anaerobic cultivation at 37° C., less than 10 colonies on LRBB agar
[6] = Capnocytophaga ochraceus, MH medium, 96 hours anaerobic cultivation at 37° C., less than 10 colonies on LRBB agar
[7] = Fusobacterium nucleanum, MH medium, 96 hours anaerobic cultivation at 37° C., less than 10 colonies on LRBB agar

Row | Structure (SMILES) | disinfection concentration (Streptococcus sanguis) | disinfection concentration (Streptococcuis mutans) | disinfection concentration (Lactobacillus casei) | disinfection concentration (Acetinobacillus) | disinfection concentration (Bacterioides gingivalis) | disinfection concentration (Capnocytophaga ochraceus) | disinfection concentration (Eikenella corrdens) | disinfection concentration (Streptococcus sanguis; [1]) | disinfection concentration (Streptococcuis mutans; [2]) | disinfection concentration (Lactobacillus casei; [3]) | disinfection concentration (Acetinobacillus; [4]) | disinfection concentration (Bacterioides gingivalis; [5]) | disinfection concentration (Capnocytophaga ochraceus; [6]) | disinfection concentration (Fusobacterium nucleanum; [7]) | disinfection concentration (Eikenella corrdens; Eikenella corrdens, MH medium, 96 hours anaerobic cultivation at 37° C., less than 10 colonies on LRBB agar) | disinfection concentration (Fusobacterium nucleanum)
1 | O=C([O-])O.[K+] [KHCO3, potassium bicarbonate] | 300 | 600 | 600 | 300 | 100 | 150 | 300 | – | – | – | – | – | – | – | – | –
2 | O=S(=O)([O-])[O-].[Mg+2] [MgSO4, magnesium sulfate] | – | – | – | – | – | – | – | 1,600 | 1,700 | 1,500 | 300 | 600 | 400 | 300 | – | –
3 | [Cl-].[Na+] [NaCl, sodium chloride] | – | – | – | – | – | – | – | 2,200 | 1,300 | 1,200 | 250 | 650 | 350 | 400 | 400 | –
4 | O=C([O-])O.[Na+] [NaHCO3, sodium bicarbonate] | 500 | 450 | 500 | 250 | 500 | 200 | – | – | – | – | – | – | – | – | – | 450
